The values below come from ChEMBL document CHEMBL1149379, “Pyrrolo(iso)quinoline derivatives as 5-HT(2C) receptor agonists” (Bioorg Med Chem Lett, 2006).

For assay [1], the target named is T1, 5-hydroxytryptamine receptor 2A (Homo sapiens, UniProt P28223). The assay is described as follows: Binding to human 5HT2A receptor expressed in CHO cells relative to 5HT. The assay is classed as cell-based.
Assay [2] concerns the target T1, 5-hydroxytryptamine receptor 2A. The assay is described as follows: Binding to human 5HT2A receptor expressed in CHO cells. The assay is classed as cell-based.
Assay [3] concerns the target T2, 5-hydroxytryptamine receptor 2C (Homo sapiens) (UniProt P28335).
T2 sequence (whole entry): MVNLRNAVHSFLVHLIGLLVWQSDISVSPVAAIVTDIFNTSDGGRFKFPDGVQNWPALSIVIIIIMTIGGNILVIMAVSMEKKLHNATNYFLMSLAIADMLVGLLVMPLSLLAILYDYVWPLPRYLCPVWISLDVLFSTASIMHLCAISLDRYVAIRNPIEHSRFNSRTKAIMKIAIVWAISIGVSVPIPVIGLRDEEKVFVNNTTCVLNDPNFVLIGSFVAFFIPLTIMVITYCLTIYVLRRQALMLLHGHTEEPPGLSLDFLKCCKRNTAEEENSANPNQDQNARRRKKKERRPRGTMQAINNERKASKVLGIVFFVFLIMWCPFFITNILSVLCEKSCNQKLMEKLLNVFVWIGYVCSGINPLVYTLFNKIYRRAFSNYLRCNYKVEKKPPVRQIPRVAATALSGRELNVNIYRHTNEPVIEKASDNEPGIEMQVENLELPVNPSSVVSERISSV
The assay is described as follows: Binding to human 5HT2C receptor expressed in CHO cells relative to 5HT. The assay is classed as cell-based.

Assay [4] addresses T3, 5-hydroxytryptamine receptor 2C (Homo sapiens, UniProt P28335).
T3 sequence (P28335 whole entry): T2 sequence (whole entry)
Kind of assay: Binding to human 5HT2C receptor expressed in CHO cells. The assay is classed as cell-based.

Assay [5] concerns the target T4, 5-hydroxytryptamine receptor 2B (Homo sapiens, UniProt P41595). Kind of assay: Displacement of [3H]5-HT from human 5HT2B.
The target of assay [6] is T4, 5-hydroxytryptamine receptor 2B. The assay is described as follows: Binding to human 5HT2B receptor expressed in CHO cells. The assay is classed as cell-based.
Assay [7] addresses T3, 5-hydroxytryptamine receptor 2C. Kind of assay: Displacement of [3H]5-HT from human 5HT2C. For orientation: Displacement assays read how much labelled ligand stays bound in the presence of the test substance.
Assay [8] deals with T1, 5-hydroxytryptamine receptor 2A. Kind of assay: Displacement of [125I]DOI from human 5HT2A.
The target of assay [9] is T4, 5-hydroxytryptamine receptor 2B. The assay is described as follows: Binding to human 5HT2B receptor expressed in CHO cells relative to 5HT. The assay is classed as cell-based.
In assay [10] the test system is Rattus norvegicus. Kind of assay: Reduction in food intake in food-deprived rats after 4 hrs of administration of 3 mg/kg. The assay is classed as functional, organism-based. Set-up: dose 3 mg/kg.
The species entered for assay [11] is Rattus norvegicus. Kind of assay: Blocking of anorectic effect in rats pre-treated with SB-242084. The assay is classed as functional, organism-based.

SMILES strings stand for the structures. Activity calls are given as the source filed them. The rule behind the calls is not given here. Where only a bound is given, the exact number is not on record here.

T4 sequence (P41595 whole entry): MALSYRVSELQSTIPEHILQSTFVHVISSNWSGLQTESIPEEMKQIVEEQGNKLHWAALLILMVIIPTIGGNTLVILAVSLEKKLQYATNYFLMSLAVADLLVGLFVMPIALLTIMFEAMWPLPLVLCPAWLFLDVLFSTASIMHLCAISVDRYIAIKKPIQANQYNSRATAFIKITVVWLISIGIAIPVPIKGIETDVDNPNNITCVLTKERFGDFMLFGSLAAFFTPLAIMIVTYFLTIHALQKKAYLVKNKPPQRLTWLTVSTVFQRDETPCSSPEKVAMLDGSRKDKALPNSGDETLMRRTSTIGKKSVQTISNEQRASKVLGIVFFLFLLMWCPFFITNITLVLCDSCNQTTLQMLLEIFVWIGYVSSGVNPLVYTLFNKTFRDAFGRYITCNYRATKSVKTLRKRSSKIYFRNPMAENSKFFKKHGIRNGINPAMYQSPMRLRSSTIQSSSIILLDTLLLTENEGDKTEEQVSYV
T1 sequence (P28223 whole entry): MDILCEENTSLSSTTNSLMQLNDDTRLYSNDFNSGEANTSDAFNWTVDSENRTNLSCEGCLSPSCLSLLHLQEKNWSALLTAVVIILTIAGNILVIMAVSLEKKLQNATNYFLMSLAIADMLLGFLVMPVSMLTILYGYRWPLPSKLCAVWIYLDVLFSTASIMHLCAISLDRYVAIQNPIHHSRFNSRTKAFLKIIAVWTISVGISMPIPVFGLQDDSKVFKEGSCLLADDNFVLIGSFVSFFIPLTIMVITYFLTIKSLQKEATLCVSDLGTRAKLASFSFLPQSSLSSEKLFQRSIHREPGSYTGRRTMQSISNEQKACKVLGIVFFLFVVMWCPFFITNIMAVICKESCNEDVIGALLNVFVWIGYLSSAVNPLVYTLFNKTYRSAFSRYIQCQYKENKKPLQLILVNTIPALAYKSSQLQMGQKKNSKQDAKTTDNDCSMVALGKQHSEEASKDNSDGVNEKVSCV

Turning to `C[C@@H](Cn1ccc2ccc3ncccc3c21)NCc1ccc2ccccc2c1`, the Efficacy in [1] worked out at 56%; in [3], 99%; in assay [9] it was 76%. The figures for the EC50 in assay [2], in assay [4] and in assay [6] were 222 nM, 52 nM and 27 nM, respectively. Besides, the Ki amounted to 136 nM in [5], 16 nM in [7] and 181 nM in [8].
`C[C@H](N)Cn1ccc2cc(Cl)c3ncccc3c21`: the Efficacy was 85% in assay [1], 101% in assay [3] and 61% in assay [9]. Also, the EC50 was 36 nM in assay [2], 6.9 nM in assay [4] and 2.1 nM in assay [6]. For the same molecule, the inhibition constant (Ki) in assay [5] was 18 nM; in [7], 2.4 nM; in assay [8] it was 29 nM.
Take `C[C@@H](Cn1ccc2ccc3ncccc3c21)NCc1ccccc1Cl`: the Efficacy in [1] was found to be 58%; in assay [3] it was 95%; in [9], 72%. For the same molecule, the results for the concentration for a half-maximal effect (EC50) in assay [2], in assay [4] and in assay [6] were 638 nM, 74 nM and 44 nM, respectively. The Ki in assay [5] came out at 380 nM; in assay [7], 39 nM; in [8], 674 nM.
Turning to `NCCc1c[nH]c2ccc(O)cc12`, in assay [1], the Efficacy worked out at 98%.
On to `COc1ccccc1CN[C@@H](C)Cn1ccc2ccc3ncccc3c21`, for which the Efficacy is 24% in assay [1], 77% in assay [3] and 41% in [9]. Moreover, the EC50 is > 1000 nM in [2], 551 nM in assay [4] and 462 nM in assay [6]. Also, the inhibition constant Ki in [5] was 883 nM; in [7], 168 nM; in assay [8], 1570 nM.
Turning to `C[C@@H](Cn1ccc2ccc3ncccc3c21)NCc1ccc2c(c1)OCO2`, the Efficacy in assay [1] amounted to 69%; in assay [3], 98%; in [9], 71%. The 50% effective concentration (EC50) was 359 nM in [2], 42 nM in assay [4] and 20 nM in [6]. Besides, the Ki in assay [5] was determined as 138 nM; in [7] it was 16 nM; in assay [8], 398 nM.
On to `C[C@H](N)Cn1ccc2ccc3cccnc3c21`, for which the Efficacy worked out at 41% in assay [1], 39% in [3] and 60% in assay [9]. Moreover, the 50% effective concentration (EC50) in assay [2] is 446 nM; in [4] it was 97 nM; in assay [6], 45 nM. Besides, the inhibition constant (Ki) in assay [5] turned out to be 115 nM; in assay [7] it was 27 nM; in assay [8], 229 nM.
As for `C=CCN[C@@H](C)Cn1ccc2ccc3ncccc3c21`, the values for the Efficacy in assay [1], in [3] and in assay [9] were 54%, 92% and 70%, respectively. Further, the EC50 in assay [2] was determined as 777 nM; in assay [4], 257 nM; in assay [6], 91 nM. The Ki in [5] was found to be 455 nM; in assay [7], 86 nM; in [8] it was 1160 nM.
With `C[C@@H](Cn1ccc2ccc3ncccc3c21)NCc1ccccc1`, the results for the Efficacy in assay [1], in assay [3] and in [9] were 39%, 86% and 70%, respectively. Besides, the EC50 in [2] was > 1000 nM; in [4] it was 200 nM; in assay [6] it was 97 nM. Also, the Ki in [5] turned out to be 515 nM; in [7] it was 77 nM; in [8], 842 nM.
As to `CCN[C@@H](C)Cc1cccc(C(F)(F)F)c1`, the result with Rattus norvegicus [10] was Active.
Regarding `C[C@H](N)Cn1ccc2ccc3cnccc3c21`, the Efficacy in [1] amounted to 63%; in assay [3] it was 93%; in assay [9], 70%. In addition, the EC50 in assay [2] was > 1000 nM; in assay [4] it was 297 nM; in assay [6], 152 nM. The Ki in assay [5] was 778 nM; in assay [7], 72 nM; in [8] it was 1040 nM.
`C[C@H](N)Cn1ccc2ccc3ccncc3c21`: the Efficacy in assay [1] came to 67%; in assay [3] it was 98%; in [9], 67%. Further, the EC50 in [2] was 473 nM; in assay [4], 73 nM; in assay [6], 62 nM. For the same molecule, the results for the Ki in assay [5], in [7] and in assay [8] were 210 nM, 37 nM and 230 nM, respectively.
On to `Clc1cccc(N2CCNCC2)c1`, for which the Efficacy was 41% in assay [1], 83% in assay [3] and 33% in assay [9].
As for `Cc1ccccc1CN[C@@H](C)Cn1ccc2ccc3ncccc3c21`, the Efficacy stood at 49% in assay [1], 87% in assay [3] and 64% in assay [9]. In addition, the EC50 in [2] was > 1000 nM; in [4], 219 nM; in assay [6], 128 nM. In addition, the Ki was found to be 739 nM in [5], 171 nM in assay [7] and 1680 nM in assay [8].
As for `C[C@@H](Cn1ccc2ccc3ncccc3c21)NCC1CCCCC1`, the values for the Efficacy in assay [1], in assay [3] and in [9] were 32%, 88% and 67%, respectively. The results for the concentration giving a half-maximal response (EC50) in assay [2], in assay [4] and in [6] were > 1000 nM, 348 nM and 128 nM, respectively. Further, the inhibition constant (Ki) in [5] came out at 624 nM; in assay [7], 78 nM; in assay [8], 927 nM.
With `C[C@H](N)Cn1ccc2ccc3ncccc3c21`, the results for the Efficacy in [1], in assay [3] and in [9] were 88%, 99% and 65%, respectively. Moreover, the figures for the EC50 in assay [2], in assay [4] and in [6] were 32 nM, 2.9 nM and 1.1 nM, respectively. Besides, in the assay on Rattus norvegicus [10], the result was Active. The Activity result in the assay filed under Rattus norvegicus [11] is “Dose-dependent effect”. Moreover, the figures for the Ki in assay [7] and in [8] were 1.6 nM and 31 nM, respectively.
For `C[C@H](N)Cn1ccc2cc(F)c(Cl)cc21`, the Efficacy in [1] came to 72%; in [3], 93%; in assay [9], 71%.

As a reminder, the EC50 is the concentration giving half of the maximal effect. A low value points to a more potent agent. What is called Ki is a measure of affinity in units of concentration, obtained from inhibition or displacement. Read a low Ki as a stronger hold on the target.
